In US20130023587A1, “COMPOSITIONS AND METHODS FOR THE TREATMENT OF CANCER” (DUKE UNIVERSITY, priority 2010, published 2013):
“Also recorded” adds a separate entry of the source.

Key:
R3230 cells [1] = experiment: Clonogenic assay; assay type: cell-based, rat
From the text: Cells were washed and returned to normal growth medium. 14 days later, colonies were stained with crystal violet and counted.

MCT-1 = target: T1, MCT-1 (Rattus norvegicus, UniProt P53987); experiment: 13C NMR of lactate uptake and catabolism to alanine and glutamate in R3230 cells; assay type: cell-based; conditions: 5 mM CHC
T1 construct: endogenous in cells; host or cells: R3230 rat mammary carcinoma cells
T1 sequence (P53987 1-494): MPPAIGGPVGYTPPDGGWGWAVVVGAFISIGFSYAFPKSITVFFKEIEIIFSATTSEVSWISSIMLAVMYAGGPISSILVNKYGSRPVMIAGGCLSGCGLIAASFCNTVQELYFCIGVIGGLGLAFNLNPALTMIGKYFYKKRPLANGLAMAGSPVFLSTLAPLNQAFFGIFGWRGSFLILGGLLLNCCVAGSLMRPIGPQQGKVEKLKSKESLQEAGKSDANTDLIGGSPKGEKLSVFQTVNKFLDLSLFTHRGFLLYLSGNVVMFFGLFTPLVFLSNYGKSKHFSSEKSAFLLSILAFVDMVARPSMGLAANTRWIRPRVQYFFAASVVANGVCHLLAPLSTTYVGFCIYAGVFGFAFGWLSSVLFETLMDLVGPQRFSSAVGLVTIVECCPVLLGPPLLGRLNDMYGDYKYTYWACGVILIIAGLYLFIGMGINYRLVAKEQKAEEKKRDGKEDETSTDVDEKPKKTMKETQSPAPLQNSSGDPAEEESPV
Description: ^1H-NMR and ^13C-NMR: R3230 cells were grown to 60% confluency. Cells were washed and exposed to DMEM with varying concentrations of ^13C-methyl labeled L-lactate solution (Sigma, St. Louis, Mo.), without serum and glucose. Cells were washed, mounted with 60% perchloric acid, scraped down, and centrifuged at 8,000 G for 5 min; PBS (20% vol/vol) and 98% deuterated water (10% vol/vol) (Sigma, St. Louis, Mo.) were added to supernatants to a total of 600 uL for NMR. For medium sample analysis, 10% vol/vol deuterated water was added to the medium before NMR analysis. NMR spectra were recorded on a Varian 500 MHz VNMRS spectrometer equipped with a Dell Optiplex 755 data system and a 5 mm Varian inverse probe. ^1H NMR spectra were obtained with a spectral width (SW) of 5.5 kHz, a 67 pulse flip angle (6 us), a 6.4 s acquisition time (AT), a 2 sec water presaturation pulse and relaxation delay (RD), and digitized using 64000 points to obtain a digital resolution of 0.172 Hz per point. ^1H-decoupled ^13C spectra were recorded at 125 MHz with a 32051.3 Hz SW, a 60 pulse flip angle (6.5 us), a 2.0 s AT, a 0.7 s RD and digitized into 130,000 points to yield a digital resolution of 0.493 Hz per point.

R3230 Ac = experiment: Uptake kinetics of 14C-lactate or 14C-glucose in vivo (3-compartment model); parameters: species or system rat; conditions: 14C-labeled metabolite infused i.v., fitted rate constant
Description: Uptake kinetics of ^14C-lactate in vivo: Kinetics of ^14C-lactate or ^14C-glucose uptake were studied using a novel implantable fiber optic radiation detection probe provided by Sicel Technologies Inc., Durham, N.C. Time uptake curves from tumor, subcutaneous, and blood compartments were analyzed using a 3-compartment model from which were derived parameters related to the transfer coefficients in and out of the tumor and blood clearance (see Supplemental methods for detail). The apparatus detected beta radiation from ^14C, which is proportional to ^14 C-lactate or ^14C-glucose concentration. Probes were inserted into tumors of anesthetized rats (Isoflurane as above) and subcutaneous tissue as a control. Each probe was calibrated using ^14C-glucose solutions of known concentration (μCi/mL) immediately before the experiment. After a stabilization period of 50 min, 50 μCi of ^14C-lactate or ^14C-glucose was infused intravenously. Data were recorded in two-minute intervals over 3 h. Baseline (background, dark current values) were subtracted from each time point.
Normalization to the calibration solution was done to control for variations in probe performance and length of probe used in different tumors. The relationship between photons detected and concentration (μCi/mL) was linear, based on experiments done by the company. Data were graphed as the change in μCi/mL over time, and normalized to dose/body weight (μCi/g) to obtain a standardized uptake value (SUV).
In separate animals, blood samples (300 μL-500 μL) were taken at 0, 4, 7, 10, 15, 25, 30, 60, 100, and 160 minutes from the arterial cannula following ^14C-radioisotope infusion. Samples were centrifuged, and plasma collected and weighed. Plasma activities were measured in a liquid scintillation counter (Packard Tri-Carb 1500, Perkin Elmer Life and Analytical Sciences Inc., Boston Mass.) and isotope concentrations (μCi/g) were calculated. Blood activity data were normalized to dose/body weight. Time uptake curves from tumor, subcutaneous, and blood compartments were analyzed using a 3-compartmental model.
The equations defining tracer kinetics were the following:
dCp/dt=−(k1+k4+k0)Cp+k2Ct+k5Cs (1)
Cp, Ci, and Cs were the tracer concentration in central blood compartment, tumor cells, and subcutaneous tissue, respectively. Ct was the measured compound concentration in tumor. Vb was the vascular volume fraction. Due to the nature of the measurement, the tumor probe collected photon counts from both tumor cells and nearby vasculature. The last equation described vascular contribution to the overall photon counts in the tumor tissue. Ki was the transfer constant between each compartment. The averaged isotope concentration in plasma was used to create an empirical blood curve to be used in the model. […]

R3230 cells [2] = experiment: Measurement of metabolic rates (glucose consumption) in cultured R3230 cells; assay type: cell-based, rat
Description: (§1) Tissue culture and measurement of metabolic rates: The R3230 rat mammary carcinoma was originally derived from a spontaneous mammary carcinoma of the Fischer 344 rat (Hilf et al, 1965; Lindberg et al, 1996). Cells were exposed to 6% or 0.5% oxygen (Vaupel et al, 1991) at 37° C., and […] in glucose- and serum-free DMEM, while dishes were placed on a slow-moving rocker. Cells were counted and media samples were collected at the beginning and end of the experiment, and analyzed for glucose and lactate content using a CMA microdialysis analyzer (CMA, Sweden).

R3230 cells [3] = experiment: Survival of R3230 cells by counts of attached cells; assay type: cell-based, rat
Description: (F) Effect of Na-lactate concentration on cellular NAD/NADH ratio (expressed as light absorbance ratio, 260/340 nm).
as §1

R3230 cells [4] = experiment: pHi measurements with BCECF-AM; assay type: cell-based, rat; conditions: fluorescent dye BCECF-AM
Description: pHi measurements: Cells were grown on glass coverslides and incubated with BCECF-AM (Invitrogen) at 5 μM for 20 min, and imaged on an inverted fluorescence microscope, with excitation at 440 and 490 nm, emission 535 nm. Ratiometric pH calibration was done in mixture ratios of buffers containing 110 mM K2HPO4 or 135 mM KH2PO4, and 20 mM NaCl, respectively. Nigericin was added at 10 μM (Franck et al, 1996) and pH expressed as ratios of grayscale values from stacks of calibration images taken from the nigericin-treated cells, imaged at 440 and 490 nm (Franck et al, 1996).

R3230 cells [5] = experiment: Measurement of redox changes (NAD+/NADH optical density 260/340 nm); assay type: cell-based, rat; conditions: within 2 minutes after isovolumic addition
Description: Measurement of redox changes: Cells were trypsinized, washed, and brought to 5×10^6/mL in PBS. 1 mL of cell suspension was scanned for optical density in a cuvette at 260 nm (NAD^+) and 340 nm (NADH+H^+). Various concentrations of Na-lactate in PBS were added at 20 μL/mL.

| Structure (SMILES) | effect on clonogenic survival, higher concentrations of CHC (R3230 cells [1]; any ambient lactate) | effect on clonogenic survival, low concentrations of CHC (R3230 cells [1]; high ambient lactate (>5mM) versus low lactate (0-5 mM)) | effect on lactate catabolism to alanine and glutamate (MCT-1; 40 mM 13C-lactate, 24 h, glucose/serum free) | effect on lactate uptake, low lactate (MCT-1; lactate 5 mM) | effect on lactate uptake, high lactate (MCT-1; lactate 40 mM) | K1 Transfer rate into tumor (R3230 Ac; R3230 Ac tumour-bearing rats) | K2 Transfer rate out of tumor (R3230 Ac; R3230 Ac tumour-bearing rats) | K4 Transfer rate into SQ (R3230 Ac; subcutaneous tissue) | K5 Transfer rate out of SQ (R3230 Ac; subcutaneous tissue) | effect of escalated extracellular lactate on glucose consumption (R3230 cells [2]; glucopenic conditions) | inhibition of glucose consumption (R3230 cells [2]; glucose 0.2 mM, 18 hr incubation, 6% O2) [%] | effect on survival under glucose starvation (R3230 cells [3]; lactate 2.5 mM) | Na-lactate concentration leading to decreased survival (counts of attached cells) (R3230 cells [3]; under glucose deprivation) [mM] | effect on intracellular pH (R3230 cells [4]) | effect on NAD+/NADH2+ (reductive stress) (R3230 cells [5]) |
| --- | --- | --- | --- | --- | --- | --- | --- | --- | --- | --- | --- | --- | --- | --- | --- |
| N#CC(=Cc1ccc(O)cc1)C(=O)O [CHC, α-cyano-4-hydroxycinnamate] | cytotoxic, independent of ambient lactate | selectively reduced R3230 clonogenic survival at high ambient lactate | effectively inhibited catabolism of lactate to glutamate and alanine; also recorded: inhibited breakdown of lactate and conversion into alanine and glutamate | effectively inhibited lactate uptake | lactate uptake persisted |  |  |  |  |  |  |  |  |  |  |
| CC(O)C(=O)O (stereo not drawn) [Lactate, lactate] |  |  |  |  |  | 0.2381 | 0.06182 | 0.00144 | 0.07439 | inhibited glucose consumption in a concentration-dependent manner | 41 | rendered a survival advantage | > 2.5 | concentration-dependent reduction of intracellular pH | concentration-dependent drop |
